Publication PMC9323733, “Efficacy of Vafidemstat in Experimental Autoimmune Encephalomyelitis Highlights the KDM1A/RCOR1/HDAC Epigenetic Axis in Multiple Sclerosis” (Pharmaceutics, 2022)
pEC50, pIC50: −log10 of the molar value.

Legend:
KDM1A = KDM1A (Homo sapiens, UniProt O60341); assay: In vitro potency, KDM1A inhibition; type: biochemical
[1] = tested on: C57BL/6 mice with chronic EAE; assay: Chronic EAE induced by MOG35–55, clinical score; type: in vivo, mouse
Description: Mice also received i.p. injections of 200 ng of pertussis toxin on days 0 and 2 [32]. Immunized mice were randomly distributed in different groups. […] MPTP is a prodrug which is converted to the neurotoxin 1-methyl-4-phenylpyridinium (MPP+) by MAO-B in vivo.
Compounds were administered once daily for five consecutive days in two cycles, from day 12 to 16 and from day 19 to 23 post-immunization. […] HPβCD was included to facilitate dissolution. Mice were scored daily for signs of EAE according to the following clinical scoring system: 0, no clinical signs; 0.5, partial loss of tail tonicity; 1, complete loss of tail tonicity; 2, flaccid tail and abnormal gait; 3, complete hind leg paralysis; 4, hind leg paralysis with hind body paresis; 5, hind and foreleg paralysis; and 6, death. Intermediate phenotypes were scored as a half integer. Animals were sacrificed when they kept a score of 5 more than 24 h. Investigators which administered the compounds and scored the animals were blinded to the treatments.

human S1P1 receptor = target: T1, human S1P1 receptor (Homo sapiens, UniProt P21453); assay: CellKey impedance assay in CHO cells, agonistic and antagonistic effect; type: cell-based
T1 construct: host or cells: CHO cells
Description: Cell on impedance modulation, using the CellKey (Cellular Dielectric Spectroscopy) detection method (CellKey 96, MDS Sciex, Concord, ON, Canada) at Eurofins Pharma Discovery Services (Celle-Lévescault, France). CHO cells were seeded onto a 96-well plate at 15.104 cells/well in HBSS buffer (Invitrogen), 20 mM HEPES (Invitrogen), 10% FCS (Invitrogen), and 0.1% BSA (Sigma), allowed to equilibrate for 60 min at 28 °C. DMSO solutions of compounds were diluted in HBSS and 0.1% BSA. Plates were placed onto the system, and measurements were made at a temperature of 28 °C. To measure the agonistic effect, compounds and controls in duplicate were added simultaneously to all of the wells using an integrated fluidics system. Impedance measurements were monitored for 10 min after ligand addition. […] To measure the antagonistic effect, compounds and controls in duplicate were pre-incubated for 15 min before the addition of the reference agonist S1P at 0.01 µM (EC80). Impedance measurements were monitored for 10 min.
Evaluation of the agonistic (a) and antagonist (b) effect of the compounds on the human S1P1 receptor. […] Data are expressed as percentage of control (no compound) activity, n = 2. TSA was used as a control; (d) Cellular HDAC activity assay. […] SAHA was used as a control. Ponceau S staining was used as loading control. Veh: Vehicle. […] TSA: Trichostatin A. SAHA: suberoylanilide hydroxamic acid.

recombinant HDAC2 = target: T2, recombinant HDAC2 (Homo sapiens, UniProt Q92769); assay: HDAC2 fluorimetric biochemical assay
T2 construct: purchased BPS Bioscience 50002
Description: HDAC2 activity was determined using a fluorimetric assay at BPS Bioscience (San Diego, CA, USA). Compounds were dissolved in DMSO (Sigma), and serial dilutions were further diluted in HDAC assay buffer (BPS). These working solutions were incubated in duplicate at room temperature for 3 h in a mixture containing HDAC assay buffer, BSA (Fisher Scientific), and recombinant HDAC2 (BPS). The enzymatic reactions were initiated by the addition of a fluorogenic, acetylated peptide substrate (BPS) and proceeded for 30 min at 37 °C. Then, HDAC assay developer (BPS) was added, and after further incubation at room temperature, fluorescence intensity was measured at an excitation of 360 nm and an emission of 460 nm using a Tecan Infinite M1000 microplate reader. Trichostatin A (TSA, Selleckchem, Houston, TX, USA) was used as a reference inhibitor.
For the biochemical assays, the fluorescence signal relative to the background (assay mixture in the absence of the enzyme) was subtracted from each fluorescent intensity data. Activity in the presence of compound was expressed as a percentage of fluorescence intensity in the absence of the compound.

SH-SY5Y cells = assay: Human H3 acetylation assay (Western blot), cellular HDAC activity; type: cell-based; conditions: 1 and 0.1 µM, 2 and 6 h
Description: Human H3 acetylation assays: for the determination of global and K9-specific acetylation levels, 500,000 SH-SY5Y cells were seeded in 6-well plates in DMEM/F12 1:1 (Sigma), supplemented with 2 mM glutamine (LabClinics) and 10% FBS (Sigma) and incubated at 37 °C and 5% CO2 in a humid atmosphere. […] After 2 and 6 h of treatment, cells were harvested and centrifuged at 250× g for 4 min at room temperature and cell pellets used for total histone extraction with EpiQuik Total Histone Extraction Kit (Epigentek, Farmingdale, NY, USA) following manufacturer’s instructions. 1 µg of histone extracts were run in MOPS buffer in 12% PAGE (Life Technologies, Carlsbad, CA, USA) and transferred with the iBlot system to nitrocellulose membranes. Transferred blots were stained with the Ponceau S solution (Sigma) and scanned with an Epson Perfection V600 Photo Scanner. Membranes were blocked in blocking buffer (5% skimmed milk in PBS-Tween 0.1%) for 1 h at room temperature, and after blocking blots were incubated with rabbit polyclonal anti-H3K9Ac (1:2000 dilution, Abcam, Cambridge, UK) and rabbit polyclonal anti-H3ac (K9 + K14 + K18 + K23 + K27) (1:2000 dilution, Abcam) overnight at 4 °C in ablocking buffer. […]

T1 sequence (P21453 whole entry): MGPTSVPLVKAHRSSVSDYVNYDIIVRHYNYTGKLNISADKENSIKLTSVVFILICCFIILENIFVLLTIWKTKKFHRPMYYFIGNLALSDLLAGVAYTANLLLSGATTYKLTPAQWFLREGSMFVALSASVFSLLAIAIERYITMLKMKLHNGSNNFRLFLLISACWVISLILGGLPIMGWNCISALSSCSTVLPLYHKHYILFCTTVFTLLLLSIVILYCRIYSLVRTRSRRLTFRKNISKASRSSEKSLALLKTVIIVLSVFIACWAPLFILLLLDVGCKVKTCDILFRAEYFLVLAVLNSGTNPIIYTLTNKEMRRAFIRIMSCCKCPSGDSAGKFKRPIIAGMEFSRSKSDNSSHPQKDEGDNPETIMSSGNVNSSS
T2 sequence (Q92769 whole entry): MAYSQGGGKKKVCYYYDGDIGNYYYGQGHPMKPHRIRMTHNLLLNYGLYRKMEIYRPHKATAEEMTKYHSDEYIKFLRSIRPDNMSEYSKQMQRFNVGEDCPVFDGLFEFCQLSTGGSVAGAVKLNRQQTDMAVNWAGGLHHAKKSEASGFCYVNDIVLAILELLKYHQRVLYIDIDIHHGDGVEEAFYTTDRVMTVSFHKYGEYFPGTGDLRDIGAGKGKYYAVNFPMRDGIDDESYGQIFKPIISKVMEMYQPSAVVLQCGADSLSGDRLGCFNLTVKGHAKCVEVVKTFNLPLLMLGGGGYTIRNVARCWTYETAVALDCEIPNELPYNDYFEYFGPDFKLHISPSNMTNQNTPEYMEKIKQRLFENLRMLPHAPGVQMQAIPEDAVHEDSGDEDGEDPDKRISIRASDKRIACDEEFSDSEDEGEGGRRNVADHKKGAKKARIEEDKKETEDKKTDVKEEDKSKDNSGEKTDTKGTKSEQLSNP

C#CCN[C@@H]1CCc2ccccc21 [rasagiline, reference compound]
pIC50 (KDM1A): < 4.00 | mice with no or only mild clinical signs at the end of the study ([1]; EAE experiment 2): 44% | effect on clinical course / disease severity ([1]; EAE experiment 2 (mild), p.o. ORY-2001 0.05, 0.5, 1 mg/kg, ORY-LSD1 90, 180 µg/kg, rasagiline 3 mg/kg): showed no overall protective effect | animals with severe signs (maximum clinical score 3.5–6) ([1]; EAE experiment 2, highest dose tested): 33% | onset of clinical signs ([1]; EAE experiment 2, rasagiline 3 mg/kg): slight delay of the onset of the clinical signs

CCCCCCCCCCCCC/C=C/[C@@H](O)[C@@H](N)COP(=O)(O)O [S1P]
EC80, reference agonist (human S1P1 receptor; concentration used in antagonist mode): 0.01 µM | pEC50 (human S1P1 receptor; impedance, agonistic effect, read-out: EC50, reference agonist): 9.00

CCCCCCCCc1ccc(CC[C@](N)(CO)COP(=O)(O)O)cc1 [FTY720-P, Fingolimod Phosphate]
impact on recombinant HDAC2 activity (recombinant HDAC2): unable to confirm the previous studies reporting that FTY720 or FTY720-P had any significant impact | impact on cellular HDAC activity (acetylated H3 or H3K9 levels) (SH-SY5Y cells): unable to confirm the previous studies reporting that FTY720 or FTY720-P had any significant impact

CCCCCCCCc1cccc(NC(=O)[C@H](N)COP(=O)(O)O)c1 [VPC23019]
pIC50 (human S1P1 receptor; impedance, vs S1P at 0.01 µM, read-out: IC50, reference antagonist): 7.57
